Data taken from patent US4593106A, “4-[2-(dialkylamino)ethyl]-7-hydroxyisatins” (SmithKline Beckman Corporation, priority 1984, dated 1986).
Read-outs that look alike come from different tables or passages of the source.

Tests used:
D2 -receptors = assay: peripheral D2-agonist selectivity (general statement, no test named); settings: main locus of action at presynaptic dopaminergic receptors or sympathetic nerve terminals
D2 = molecular target: T1, D2 (Oryctolagus cuniculus, UniProt G1T1Q0); assay: perfused rabbit ear artery test for D2-agonist activity
T1 construct: perfused rabbit ear artery test; from tissue; host or cells: perfused rabbit ear artery (sympathetic nerve terminals)
T1 sequence (G1T1Q0 1-443): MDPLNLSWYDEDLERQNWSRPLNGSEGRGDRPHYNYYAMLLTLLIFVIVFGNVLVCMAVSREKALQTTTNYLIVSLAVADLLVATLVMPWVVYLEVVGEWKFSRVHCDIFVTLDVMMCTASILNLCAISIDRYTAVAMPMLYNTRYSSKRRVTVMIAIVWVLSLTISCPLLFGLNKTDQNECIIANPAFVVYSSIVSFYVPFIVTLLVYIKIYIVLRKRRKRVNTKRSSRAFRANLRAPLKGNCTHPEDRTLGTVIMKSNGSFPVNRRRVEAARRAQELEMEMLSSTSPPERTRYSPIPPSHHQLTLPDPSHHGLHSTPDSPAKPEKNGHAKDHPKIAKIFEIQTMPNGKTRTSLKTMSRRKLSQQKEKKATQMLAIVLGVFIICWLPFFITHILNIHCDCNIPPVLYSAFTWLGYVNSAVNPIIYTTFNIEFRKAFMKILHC

SMILES	selective peripheral D2-agonist (D2 -receptors)	EC50 (D2)	EC50 (D2; perfused rabbit ear artery test, D2-agonist activity, read-out: EC50)
Br.CCCN(CCC)CCc1ccc(O)c2c1C(=O)C(=O)N2 [4-[2-(di-n-propylamino)ethyl]-7-hydroxyisatin hydrobromide]	selective peripheral D2 -agonists	2 to 7 nM	
CCCN(CCC)CCc1ccc(O)c(O)c1 [N,N-di-n-propyldopamine, reference compound]			50 to 60 nM
